The values below come from ChEMBL document CHEMBL2203261, “Selective thyromimetics using receptor and tissue selectivity approaches: prospects for dyslipidemia” (J Med Chem, 2012).

Molecules are shown by their SMILES.

Assay [1] has as its target T1, Thyroid hormone receptor alpha (Homo sapiens, UniProt P10827).
T1 sequence (P10827 whole entry): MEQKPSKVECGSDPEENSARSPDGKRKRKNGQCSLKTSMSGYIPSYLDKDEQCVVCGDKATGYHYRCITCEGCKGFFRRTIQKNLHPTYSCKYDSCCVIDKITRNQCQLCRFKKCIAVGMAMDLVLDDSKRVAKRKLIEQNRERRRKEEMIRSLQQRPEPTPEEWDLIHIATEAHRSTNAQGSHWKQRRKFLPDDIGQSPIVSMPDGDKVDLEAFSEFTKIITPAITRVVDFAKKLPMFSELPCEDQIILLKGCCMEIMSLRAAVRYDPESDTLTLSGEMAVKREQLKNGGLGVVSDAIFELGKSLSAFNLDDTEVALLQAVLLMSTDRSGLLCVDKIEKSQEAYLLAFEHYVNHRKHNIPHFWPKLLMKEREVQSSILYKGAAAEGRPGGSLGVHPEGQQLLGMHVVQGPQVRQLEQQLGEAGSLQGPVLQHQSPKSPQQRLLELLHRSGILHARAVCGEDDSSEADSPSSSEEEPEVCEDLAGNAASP
Briefly: Binding affinity to TRalpha1.

Assay [2] has as its target T2, Thyroid hormone receptor beta (Homo sapiens, UniProt P10828).
T2 sequence (P10828 whole entry): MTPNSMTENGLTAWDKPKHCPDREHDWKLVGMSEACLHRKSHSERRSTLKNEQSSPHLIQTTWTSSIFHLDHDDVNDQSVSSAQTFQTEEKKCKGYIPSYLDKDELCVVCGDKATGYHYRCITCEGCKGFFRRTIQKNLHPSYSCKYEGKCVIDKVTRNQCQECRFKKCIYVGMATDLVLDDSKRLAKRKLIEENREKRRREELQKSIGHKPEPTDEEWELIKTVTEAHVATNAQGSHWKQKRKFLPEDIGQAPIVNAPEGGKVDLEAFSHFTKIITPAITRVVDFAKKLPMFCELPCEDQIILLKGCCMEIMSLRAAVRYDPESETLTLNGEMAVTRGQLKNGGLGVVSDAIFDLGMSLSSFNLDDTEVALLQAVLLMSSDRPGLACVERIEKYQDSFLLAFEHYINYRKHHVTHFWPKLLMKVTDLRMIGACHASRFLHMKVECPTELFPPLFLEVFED
Briefly: Binding affinity to TRbeta1.

For assay [3], the system named is Homo sapiens. Briefly: Antidyslipidemic activity in obese, hypercholesterolemic patient assessed as reduction in LDL cholesterol at 100 ug administered QD for 2 weeks relative to control. In kind it is functional. Set-up: scale not given: the % may be the effect or the level left.
The next assay deals with Rattus norvegicus. Briefly: Antidyslipidemic activity in po dosed cholesterol fed rat assessed as reduction in cholesterol level administered QD. In kind it is functional.
The subject of assay [4] is Homo sapiens. Briefly: Antidyslipidemic activity in human assessed as reduction in LDL cholesterol at 100 ug administered QD relative to control. In kind it is functional. Set-up: scale not given: the % may be the effect or the level left.

`O=C(O)Cc1cc(Cl)c(Oc2ccc(O)c(C(=O)NCC(c3ccccc3)c3ccccc3)c2)c(Cl)c1`: the EC50 – broadly, the concentration that produces a half-maximal response – in assay [1] was found to be 0.018 µM; in assay [2], 0.00047 µM. For `O=C(O)Cc1cc(Cl)c(Oc2ccc(O)c(-c3ccccc3)c2)c(Cl)c1`, in that order: 0.152 µM and 0.0029 µM. In the case of `CC(C)c1cc(Oc2c(Br)cc(NC(=O)CC(=O)O)cc2Br)ccc1O` [EPROTIROME], the Activity with Homo sapiens [3] was 40%. Consider `Cc1cc(OCP2(=O)OCC[C@@H](c3cccc(Cl)c3)O2)cc(C)c1Cc1ccc(O)c(C(C)C)c1` (stereo partly drawn) [MB07811], for which the affinity in assay [2] corresponds to a Ki of 0.6 µM. In addition, the ED50 – broadly, the dose at which the effect has come halfway, by size or by number of responders – with Rattus norvegicus turned out to be 0.4 mg/kg. As to `Cc1cc(OCC(=O)O)cc(C)c1Cc1ccc(O)c(C(C)C)c1` [SOBETIROME], in the assay on Homo sapiens [4], the Activity is on record as 41%.
